What was measured:
[1] = Rumen protected niacin, response to epinephrine (Epi) challenge; assay type: in vivo, Holstein cows
Text: Niacin may modulate lipolytic responses in adipose tissue but is highly degradable in the rumen so that oral administration leads to unknown quantities absorbed. We determined responses to epinephrine (Epi) challenge as affected by three levels of protected niacin (PN) or unprotected niacin (UN) in the diet or infused abomasally.
Six multiparous rumen-cannulated Holstein cows (BW=656 kg; 128±23 days in milk) were used in a completely randomized 6×6 Latin Square with an extra period to quantify carryover effects. Periods consisted of 7 days for adaptation followed by 7 days for measurements. Cows were fed according to NRC (2001) recommendations. Treatments were: CON (no niacin), INF (abomassal infusion of 12 g UN), N12 (12 g UN), BN3 (3 g PN), BN6 (6 g PN), and BN12 (12 g PN). Treatments N12, BN3, BN6, and BN12 were top-dressed on the Total Mixed Ration (TMR) twice daily. Treatment INF was divided in 5 equal portions and infused every 4 hours. Cows receiving treatments other than INF were infused with the same volume of water at the same times.
On day 12, cows received an i.v, infusion of Epi (1.4 μg/kg BW). […] Total area under the curve (AUC) responses of nonesterified Fatty Acids (NEFA) and glucose concentrations in plasma were calculated using the trapezoidal rule.

[2] = Rumen protected niacin, effect upon milk production; assay type: in vivo, Holstein cows; settings: 12 g top-dressed on TMR twice daily (N12 / BN12)
Text: Six multiparous rumen-cannulated Holstein cows (BW=656 kg) after peak lactation (128±23 days in milk) were assigned to 1 of 6 treatments in a completely randomized 6×6 Latin Square with an extra period to measure carry-over effects. Periods consisted of a 7-day (d 1-7) adaptation period followed by a 7-day (d 8-14) measurement period. Cows were fed according to NRC (2001) recommendations to meet or exceed requirements. Treatments were: CON (no niacin), INF (abomassal infusion of 12 g unprotected niacin (UN)), N12 (12 g UN), BN3 (3 g PN), BN6 (6 g PN), and BN12 (12 g PN). Treatments N12, BN3, BN6, and BN 12 were top-dressed on the Total Mixed Ration (TMR) twice daily. The daily dose of treatment INF was divided in 5 equal portions and infused during the day every 4 hours. Cows receiving treatments other than INF were infused with the same volume of water at the same time.

O=C(O)c1cccnc1 [UN, niacin]
Time to peak NEFA concentration ([1]; 12 g top-dressed on TMR twice daily (N12 / BN12), i.v. Epi 1.4 μg/kg BW on day 12, plasma): 22.1 ± 3.2 min
glucose AUC ([1]; abomasal infusion of 12 g (INF) compared with N12, Epi challenge, P=0.04): greater AUC than N12
dry matter intake (DMI) [2]: 24.3 ± 1 kg
milk fat/protein ratio (F/P) ([2]; P=0.03): 1.15±0.09
Feed efficiency (FE=energy-corrected milk/DMI) ([2]; P=0.04): 1.5±0.1
Milk yield ([2]; P=0.06): 37.1 ± 2.3 kg
